Test results as given in patent US20090054333A1, “Peptide inhibitors of cyclin-dependent kinase activity and uses thereof” (priority 2006, published 2009).

Tested on: A549 non-small cell lung cancer cell line
Test: treatment of tumor growth in vivo, A549 tumor xenografts
Parameters: species or system athymic nude mice (CD1, nu/nu)
Conditions: A549 xenograft in nude mice; 50 μl of 1.5 mM peptide injected into the tumoral region
Description: Cell Culture The A549 (wt p53, and wt RB) non-small cell lung cancer cell line was cultured in Ham's F-12 with NaHCO3 (0.75 g NaHCO3/500 ml of Ham's F-12) and 10% (vol/vol) fetal bovine serum (FBS). The cells were cultured at 37° C. in a humidified incubator containing 5% CO2. Cells were harvested, when they reached 70-80% confluence.
Preparation of Tumor Xenografts in Immunodeficient Mice: The animal experiments were carried out in accordance with the Guidelines for the Care and Use of Laboratory Animals (National Institute of Health publication number 85-23) and the institutional guidelines of Temple University. 4-6 week-old female athymic nude mice (CD1, nu/nu) were bought from Charles River Laboratory (Wilmington, Mass.). About a week after the mice arrived, the A549 cells were harvested and then suspended in unsupplemented culture medium without FBS. After the mice were anesthetized by isoflurane inhalation, 4×10^6 cells in a final volume of 100 μl were injected subcutaneously into the right flank of each mouse by using 1-cc syringes with 25.5-gauge needles.
In Vivo Treatments: The length and width of each tumor were measured every time in triplicates by using a Vernier caliper. […]
For each peptide type, three mice were treated. […] The tumor sizes were measured before each treatment. Tumor volumes were calculated and plotted on a graph. […]

Spa310: pRb2/p130 amino acids 641-679 (39 amino acids long), SEQ ID NO:3; LTPRRVTEVRADTGGLGRSITSPTTLYDRYSSPPASTTR (listed as Homo sapiens)
tumor growth: does suppress the tumor growth
